Assay results as given in ChEMBL document CHEMBL1208702, “Use of 2-[(18)F]fluoroethylazide for the Staudinger ligation - Preparation and characterisation of GABA(A) receptor binding 4-quinolones” (Bioorg Med Chem Lett, 2010).
pKi: −log10 of the molar value.

Test: Displacement of [3H]Ro151788 from GABA-A receptor in Wistar rat cerebellar membrane after 1 hr by liquid scintillation counting
Type: cell membranes, Cerebellum

O=C(NCCF)c1c[nH]c2ccc(Cc3ccccc3)cc2c1=O
pKi: 9.15

CCc1ccc2[nH]cc(C(=O)NCCF)c(=O)c2c1
pKi: 8.44
